In paper PMC13252604, “First Generation Proteolysis Targeting Chimeras (PROTACs) for the Treatment of Progeria” (Advanced Science, 2026):

Target: T1, progerin (Mus musculus, UniProt P48678, DEL608-657)
T1 construct: endogenous in cells; host or cells: immortalized (SV40-LT) fibroblasts from Lmna G609G/G609G mice
T1 sequence (P48678 with tags, fused parts or gaps DEL608-657 limits assumed): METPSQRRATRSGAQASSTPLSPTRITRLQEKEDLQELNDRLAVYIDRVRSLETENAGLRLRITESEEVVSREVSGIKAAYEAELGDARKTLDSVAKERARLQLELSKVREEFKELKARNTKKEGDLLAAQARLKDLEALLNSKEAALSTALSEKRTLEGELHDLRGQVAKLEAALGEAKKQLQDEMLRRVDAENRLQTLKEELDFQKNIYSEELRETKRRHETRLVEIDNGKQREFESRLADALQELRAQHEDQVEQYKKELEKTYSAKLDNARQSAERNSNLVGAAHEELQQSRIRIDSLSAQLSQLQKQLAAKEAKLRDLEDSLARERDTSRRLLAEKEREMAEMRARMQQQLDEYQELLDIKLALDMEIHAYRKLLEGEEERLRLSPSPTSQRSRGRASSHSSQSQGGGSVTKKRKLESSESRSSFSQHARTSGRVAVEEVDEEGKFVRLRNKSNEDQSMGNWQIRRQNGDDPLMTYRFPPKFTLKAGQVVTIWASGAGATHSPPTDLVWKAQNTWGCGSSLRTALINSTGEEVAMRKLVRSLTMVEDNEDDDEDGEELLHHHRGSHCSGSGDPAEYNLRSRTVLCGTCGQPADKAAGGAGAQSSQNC
Experiment: Progerin degradation, immunoblot in Lmna^G609G/G609G fibroblasts
Format: cell-based
Conditions: 8 h; for progerin levels (immunoblot quantification): Lmna^G609G/G609G fibroblasts, 5 µM, vs vehicle
Experimental: The ability of compounds 2‐6 to degrade progerin was evaluated in Lmna^G609G/G609G fibroblasts, derived from the progeria mouse model that most closely replicates the human disease phenotype. Lamin A/C antibody was used for immunodetection due to its prevalent use in this context, enabling simultaneous visualization of both lamins and progerin [15].
FIGURE 2 (A) Representative cropped immunoblots and quantification of progerin from Lmna^G609G/G609G fibroblasts. Cells were incubated with vehicle or indicated compound at 5 µM for 8 h. MW, molecular weight (in kDa) markers. (B, C) Concentration and time‐dependency of the reduction of progerin levels induced by compounds 2 and 9. Graphs show quantification of progerin in Lmna^G609G/G609G fibroblasts (immunoblots are shown in Supporting Figure S1). Cells were incubated with vehicle or the indicated compound concentration for 8 h. For time‐course experiments, cells were incubated with vehicle or indicated compound at 5 µM. Bar graphs show mean±sem of 3 independent experiments performed in duplicate. Data were analysed using one‐way ANOVA followed by Dunnett's post–hoc test comparing all groups to the vehicle; ^*, p < 0.05. […]
4. Cell lines and culture.
Progeroid mouse fibroblasts, kindly donated by Prof. Carlos López Otín (Oviedo University, Spain), were isolated from LmnaG609G/G609G mice[19] and wild-type (WT) littermates and immortalized by retroviral transduction with SV40 large T antigen (SV40-LT). Since LmnaG609G/G609G mouse represents the most suitable and widely accepted model of HGPS, as it most faithfully recapitulates the molecular and phenotypic features of the human disease, its use in this study is fully justified. Moreover, although this cell […]
cells have been extensively validated by additional independent studies.[15, 65, 66] […]
experiments, nor does it affect the conclusions presented in our study.
Mouse fibroblasts were grown in Dulbecco’s modified eagle medium (DMEM, Gibco) supplemented with 10% heat inactivated fetal bovine serum (FBS, Gibco), 50 U/mL penicillin, and 50 μg/mL streptomycin (Invitrogen). Human progeroid HGADFN167 LmnaG608G/G608G (G608G) or or healthy HGADFN168 Lmna+/+ (WT) fibroblasts, were obtained from The Progeria Research Foundation (RRIDs CVCL_1Y92 and CVCL_1Y93, respectively) and cultured in DMEM with 20% heat inactivated FBS, 50 U/mL penicillin and 50 μg/mL streptomycin. All cells were incubated in a humidified atmosphere at 37 °C in the presence of 5% CO2 and were confirmed to be free of mycoplasma contamination. […]
Measurements were performed in triplicate, and each experiment was repeated at least three times. The viability values were calculated from the percentage of viable cells with respect to 100% viability of the vehicle-treated cells.
6. Immunoblot and immunocytofluorescence analysis.
Mouse or human progeroid cells were seeded at density of […] or 5 x 10^4 cells respectively on 12-well plates and incubated for 24 h in DMEM medium. For proteosome-dependency assays, cells were pre-treated either with the proteasome inhibitor (S)-MG132 (20 µM) or with the NEDD8-activating enzyme inhibitor MLN4924 (5 µM) for 2 h prior to […]
compound exposure. Then, cells were incubated with compound of interest or DMSO for the appropriate time and lysed with cold laemmli buffer (50 mM Tris-HCl pH 7.4, 150 mM NaCl, 1% Igepal) with a mixture of protease and phosphatase inhibitors (1 mM PMSF, 10 mM NaF, 0.3 mg/mL CalyculinA, 1 mM sodium orthovanadate, 10 mM β-glycerol-phosphate; all from Sigma-Aldrich and complete protease inhibitor cocktail, from Roche). Proteins were denatured at 95 ᵒC for 5 min and the lysates were immediately used or stored at -20 ᵒC until use. Samples were analysed by electrophoresis in polyacrylamide gels (All Kd SDS-PAGE, BioRad) and the proteins transferred to nitrocellulose membranes (GE Healthcare, Amersham). After 1 h of incubation in blocking buffer [20 mM Tris pH 7.6, 150 mM NaCl and 0.1% Tween-20 (TBS-T) with […]

CC1(C)Oc2cc3oc(=O)ccc3cc2C[C@@H]1OC(=O)CCCCCNc1cccc2c1C(=O)N(C1CCC(=O)NC1=O)C2=O (stereo partly shown) [compound 2]
progerin levels (immunoblot quantification): most effective in reducing progerin levels | progerin-reducing activity in the presence of proteasome inhibitor MG132 (compound 5 µM, pre-treated with (S)-MG132 20 µM 2 h): abolished | progerin-reducing activity in the presence of neddylation inhibitor MLN4924 (compound 5 µM, pre-treated with MLN4924 5 µM 2 h): abolished

CC1(C)Oc2cc3oc(=O)ccc3cc2C[C@@H]1OC(=O)CCCCC(=O)Oc1ccc2c(c1)CCCN2C(=O)CCl [compound 12]
progerin levels (immunoblot quantification): failed to reduce progerin levels
